Earlier results, collected in patent US20150320795A1, “COMPOSITIONS AND METHODS COMPRISING POLYETHYLENE GLYCOL AND MAGNESIUM FOR TREATMENT OF NEURONAL INJURY” (priority 2012, published 2015).
Where two headings read alike, the source gives them in different places.

Legend:
brain injury = settings: animals; U.S. application Ser. No. 11/418,153
[1] = previously published

[Mg+2] [magnesium]
effect on the loss of cognitive functions following brain injury (brain injury): no effect | serum magnesium half-lives ([1]; brain injured patients after a 24-hour infusion period): ~6 h | serum magnesium half-lives ([1]; healthy volunteers, after one infusion): 1.25 to 4.75 h | serum magnesium half-lives ([1]; patients, pre-eclampsia): 5.2 h
